Measurements as given in publication PMC6407204, “Oral administration of the cannabigerol derivative VCE-003.2 promotes subventricular zone neurogenesis and protects against mutant huntingtin-induced neurodegeneration” (Translational Neurodegeneration, 2019).

What was measured:
[1] = test system: CTIP2 transcriptional activity; assay: CTIP2 luciferase transcriptional reporter assay (A4-MARS) in P19 cells; type: cell-based, mouse; conditions: 24 h after transfection, neuronal differentiation conditions, vs vehicle
Description: All reagents, unless indicated, were from Sigma-Aldrich (St. Louis, MO, USA). The synthesis and structure of VCE-003.2 were previously described. Mouse embryonic teratocarcinoma P19 were cultured in high-glucose DMEM (Invitrogen) supplemented with 10% fetal bovine serum and 1% penicillin/streptomycin. P19 cells were plated in 24-well plates and transfected with Lipofectamine 2000 reagent according to the manufacture’s protocol (Invitrogen). Twenty-four hours post transfection, cells were collected for RNA extraction or luciferase assay determinations. P19 neurosphere formation assay was performed using dissociated P19 cells cultured in high-glucose DMEM (Invitrogen) supplemented with 5% of fetal bovine serum and 0. 5 μM retinoic acid. Twenty-four hours later the mean neurosphere size was quantified. Luciferase construct with the MAR sequence A4 of the Ctip2 promoter was kindly provided (R. Grosschedl, Max-Planck-Institute of Immunobiology and Epigenetics, Freiburg, Germany).
To study CTIP2 transcriptional activity P19 cells were seeded in 24-well plates and transiently co-transfected with the luciferase reporter vector MARS-A4-luc using Roti-Fect (Carl Roth, Karlsruhe, Germany) following the manufacturer’s instructions. […] After stimulation, the luciferase activities were quantified using Dual-Luciferase Assay (Promega, Madison, WI, USA). […]

[2] = Microsomal metabolic stability
Description: The final incubation volume was 25 μL. […] The reactions were stopped by the addition of 50 μL methanol containing internal standard at the appropriate time points. The incubation plates were centrifuged at 2500 rpm for 20 min at 4 °C to precipitate the protein. Following protein precipitation, the sample supernatants were analyzed using LC-MS/MS. From a plot of ln peak area ratio (compound peak area/internal standard peak area) against time, the gradient of the line was determined. Subsequently, half-life and intrinsic clearance was calculated using the equations below: Elimination rate constant (k) = (− gradient).

S. typhimurium TA98 = assay: AMES reverse mutation assay, TA98; type: cell-based
Description: (§1) Supplementary file 40035_2019_148_MOESM4_ESM.pdf: Additional file 4: AMES Data Summary. AMES Experimental Procedure. Approximately ten million bacteria are exposed in triplicate to VCE-003-.2 (7.8, 15.6, 31.3, 62.5, 125 and 250 μg/ml), a negative control (vehicle) and a positive control for 90 min in medium containing a low concentration of histidine (sufficient for about 2 doublings). The cultures were then diluted into indicator medium lacking histidine and dispensed into 48 wells of a 384 well plate (micro-plate format, MPF). The plate was incubated for 48 h at 37 °C, and the number of wells showing growth were counted and compared to the vehicle control. An increase in the number of colonies of at least two-fold over baseline (mean + SD of the vehicle control) and a dose response indicates a positive response. […] Where indicated, S9 fraction from the livers of Aroclor 1254-treated rats was included in the incubation at a final concentration of 4.5%. An NADPH-regenerating system is also included to ensure a steady supply of reducing equivalents. The strains used in this study were S. typhimurium TA98 (hisD3052, rfa, uvrB/pKM10 for detection of frame-shift mutations) and S. typhimurium TA100 ([…], rfa, uvrB/pKM101 for detection of base-pair substitutions). VCE-003.2 was assessed for its mutagenic potential in the AMES reverse mutation assay. This test was performed in the absence and presence of S9 metabolic activation. […] The positive controls all behaved as expected. (PDF 568 kb)

S. typhimurium TA100 = assay: AMES reverse mutation assay, TA100; type: cell-based
Description: as §1

[3] = test system: quinolinic acid-administration model of HD; set-up: method as in PMID 27430371; conditions: cited from earlier work

For `CCCCCC1=C(NCC)C(=O)C(CC=C(C)CCC=C(C)C)=C(O)C1=O` [VCE-003.2, 2-(3,7-dimethyl-octa-2,6-dienyl)-6-ethylamino-3-hydroxy-5-pentyl-(1,4) benzoquinone], the “CTIP2 reporter (A4-MARS luciferase) activity” value [1] was “CTIP2 reporter activation”, the “intrinsic clearance in vitro (in words)” value ([2]; human liver microsomes) was “rapid intrinsic clearance” and the half-life ([2]; human, microsomes, pH 7.4) was 10.6 min. For the same molecule, the microsomal CLint ([2]; human, microsomes, pH 7.4) was 131 µL/min/mg, the “AMES Result” value (S. typhimurium TA98; TA98, S9 no) was “Negative” and the “AMES Result” value (S. typhimurium TA98; TA98, S9 yes) was “Negative”. The “AMES Result” value (S. typhimurium TA100; TA100, S9 no) was “Negative”, the “AMES Result” value (S. typhimurium TA100; TA100, S9 yes) was “Negative” and the “neuroprotection in quinolinic acid model of HD” value [3] was “neuroprotective”.
